Biological target: Amyloid-beta precursor protein (Homo sapiens, UniProt P05067)
Experiment: Binding affinity to human amyloid beta plaque

Chain of Amyloid-beta precursor protein (P05067 whole entry): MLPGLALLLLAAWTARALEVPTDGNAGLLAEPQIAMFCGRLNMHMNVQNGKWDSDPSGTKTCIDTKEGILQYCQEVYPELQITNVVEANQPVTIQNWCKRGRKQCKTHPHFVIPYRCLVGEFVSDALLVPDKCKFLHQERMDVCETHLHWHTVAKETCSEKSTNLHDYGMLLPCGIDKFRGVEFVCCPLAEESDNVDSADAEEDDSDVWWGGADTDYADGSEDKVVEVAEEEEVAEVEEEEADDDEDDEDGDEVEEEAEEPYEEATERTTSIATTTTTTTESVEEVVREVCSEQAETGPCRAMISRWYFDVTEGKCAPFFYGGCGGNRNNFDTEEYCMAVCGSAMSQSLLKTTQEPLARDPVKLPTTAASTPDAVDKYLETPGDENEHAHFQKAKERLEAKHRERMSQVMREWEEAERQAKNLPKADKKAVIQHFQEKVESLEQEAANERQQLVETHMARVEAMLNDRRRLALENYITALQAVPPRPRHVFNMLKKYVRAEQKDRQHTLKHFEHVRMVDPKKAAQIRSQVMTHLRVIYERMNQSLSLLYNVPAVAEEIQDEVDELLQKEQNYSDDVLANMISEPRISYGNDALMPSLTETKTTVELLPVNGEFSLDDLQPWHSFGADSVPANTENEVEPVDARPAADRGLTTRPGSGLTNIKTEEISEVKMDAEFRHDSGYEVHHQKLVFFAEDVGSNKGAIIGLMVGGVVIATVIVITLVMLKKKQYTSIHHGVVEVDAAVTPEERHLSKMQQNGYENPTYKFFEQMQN

Structure (SMILES): CNc1ccc(-c2nc3ccc(O)cc3s2)cc1[18F] [FLUTEMETAMOL F 18]
- Ki: 0.7 nM

Source: ChEMBL document CHEMBL2062519, “The β-Amyloid Hypothesis in Alzheimer's Disease: Seeing Is Believing” (ACS Med Chem Lett, 2012)
